# System: A549 cells (KRAS G12S mutant)
# Assay: Cell proliferation inhibition experiment, 3D spheroid, CellTiter-Glo, A549
# Format: cell-based, human
# Details: A549 (KRAS G12S mutant) 3D spheroid, 5 days with compound, CellTiter-Glo; read-out: A549 IC50
# How it was run: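 Cells seeded in 2% FBS medium in spheroid plates (800 H358 or 400 A549 per well), grown overnight to form 3D spheroids, then exposed to 3.16-fold compound dilutions (0.1% DMSO) for 5 days. CellTiter-Glo luminescence gave inhibition vs DMSO and medium blanks; IC50 by four-parameter fit.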
row,IC50,SMILES
1,27.1 µM,"C=CC(=O)N1CCN2C(=O)c3c(N4CCN(C)C(C)C4C)nc(-c4c(O)cccc4F)c(Cl)c3OC[C@H]2C1 (stereo partly drawn) [Z369, (6aR)-8-acryloyl-4-chloro-3-(2-fluoro-6-hydroxyphenyl)-1-(2,3,4-trimethylpiperazin-1-yl)-6,6a,7,8,9,10-hexahydro-12H-pyrazino[2,1-c]pyrido[3,4-f][1,4]oxazepin-12-one]"

# Same assay, conditions: Homo sapiens, A549, 120 h, A549 (KRAS G12S mutant) 3D spheroid, 5 days with compound, CellTiter-Glo; read-out: A549 IC50
row,SMILES,IC50
1,"C=CC(=O)N1CCN2C(=O)c3c(N4CCN(C)C[C@@H]4C)nc(-c4c(F)ccc(F)c4O)c(Cl)c3OC[C@H]2C1 [Z356, (6aR)-8-acryloyl-4-chloro-3-(3,6-difluoro-2-hydroxyphenyl)-1-((S)-2,4-dimethylpiperazin-1-yl)-6,6a,7,8,9,10-hexahydro-12H-pyrazino[2,1-c]pyrido[3,4-f][1,4]oxazepin-12-one]",28.3 µM
2,C=CC(=O)N1CCN2C(=O)c3c(N4CC(C#N)CC4(C)C)nc(-c4c(O)cccc4F)c(F)c3OC[C@H]2C1 (stereo partly shown) [Z335],> 30 µM
3,"C=CC(=O)N1CCN2C(=O)c3c(N4C[C@@H](OC)CC4(C)C)nc(-c4c(O)cccc4F)c(F)c3OC[C@H]2C1 (single isomer, unassigned) [Z256a-1]",9.16 µM
4,"C=CC(=O)N1CCN2C(=O)c3c(N4CC[C@H](OC)C4(C)C)nc(-c4c(O)cccc4F)c(F)c3OC[C@H]2C1 (single isomer, unassigned) [Z327-2]",9.51 µM
5,"C=CC(=O)N1CCN2C(=O)c3c(N4C[C@@H](O)CC4(C)C)nc(-c4c(O)cccc4F)c(F)c3OC[C@H]2C1 (single isomer, unassigned) [Z256-1]",12.1 µM
6,"C=CC(=O)N1CCN2C(=O)c3c(N4CC[C@@H](OC)C4(C)C)nc(-c4c(O)cccc4F)c(F)c3OC[C@H]2C1 (single isomer, unassigned) [Z327-1]",7.93 µM
7,"C=CC(=O)N1CCN2C(=O)c3c(N4C[C@H](N(C)CCOC)CC4(C)C)nc(-c4c(O)cccc4F)c(Cl)c3OC[C@H]2C1 (single isomer, unassigned) [Z296-2]",3.79 µM
8,"C=CC(=O)N1CCN2C(=O)c3c(N4C[C@H](N5CCOCC5)CC4(C)C)nc(-c4c(O)cccc4F)c(Cl)c3OC[C@H]2C1 (single isomer, unassigned) [Z297-1]",7 µM
9,"C=CC(=O)N1CCN2C(=O)c3c(N4CCN(C)C[C@@H]4C)nc(-c4nc(N)cc(C)c4C(F)(F)F)c(Cl)c3OC[C@H]2C1 [Z328-1, (R)-8-acryloyl-3-(6-amino-4-methyl-3-(trifluoromethyl)pyridin-2-yl)-4-chloro-1-((S)-2,4-dimethylpiperazin-1-yl)-6,6a,7,8,9,10-hexahydro-12H-pyrazino[2,1-c]pyrido[3,4-f][1,4]oxazepin-12-one]",16.1 µM
10,"C=CC(=O)N1CCN2C(=O)c3c(N4C[C@@H](O)CC4(C)C)nc(-c4c(F)ccc(F)c4O)c(F)c3OC[C@H]2C1 (single isomer, unassigned) [Z449-1]",> 30 µM
11,"C=CC(=O)N1CCN2C(=O)c3c(N4C[C@@H](O)CC4(C)C)nc(-c4c(O)ccc(Cl)c4F)c(F)c3OC[C@H]2C1 (single isomer, unassigned) [Z340-1]",5.51 µM
12,"C=CC(=O)N1CCN2C(=O)c3c(N4C[C@@](C)(O)CC4(C)C)nc(-c4c(O)cccc4F)c(F)c3OC[C@H]2C1 (single isomer, unassigned) [Z256b-1]",10.2 µM
13,"C=CC(=O)N1CCN2C(=O)c3c(N4C[C@H](OC)CC4(C)C)nc(-c4c(O)cccc4F)c(F)c3OC[C@H]2C1 (single isomer, unassigned) [Z256a-2]",9.27 µM
14,"C=CC(=O)N1CCN2C(=O)c3c(N4C[C@H](O)CC4(C)C)nc(-c4c(O)ccc(Cl)c4F)c(F)c3OC[C@H]2C1 (single isomer, unassigned) [Z340-2]",3.17 µM

# Next, values leading:
row,IC50,SMILES
1,> 30 µM,C=CC(=O)N1CCN2C(=O)c3c(N4CCC[C@@]4(C)CO)nc(-c4c(O)cccc4F)c(Cl)c3OC[C@H]2C1 [Z279-2]
2,10.7 µM,"C=CC(=O)N1CCN2C(=O)c3c(N4CCN(CC)C(C)(C)C4)nc(-c4c(O)cccc4F)c(Cl)c3OC[C@H]2C1 [Z322, (6aR)-8-actyloyl-4-chloro-3-(2-fluoro-6-hydroxyphenyl)-1-(4-ethyl-3,3-dimethylpiperazin-1-yl)-6,6a,7,8,9,10-hexahydro-12H-pyrazino[2,1-c]pyrido[3,4-f][1,4]oxazepin-12-one]"
3,2.53 µM,"C=CC(=O)N1CCN2C(=O)c3c(N4CC[C@@H](N(C)C)C4(C)C)nc(-c4c(O)cccc4F)c(Cl)c3OC[C@H]2C1 (single isomer, unassigned) [Z360-1]"
4,> 30 µM,"C=CC(=O)N1CCN2C(=O)c3c(N4CC(=O)N(CC)C[C@@H]4C)nc(-c4c(O)cccc4F)c(Cl)c3OC[C@H]2C1 [Z319-1, (6aR)-8-acryloyl-4-chloro-1-((S)-4-ethyl-2-methyl-5-oxopiperazin-1-yl)-3-(2-fluoro-6-hydroxyphenyl)-6,6a,7,8,9,10-hexahydro-12H-pyrazino[2,1-c]pyrido[3,4-f][1,4]oxazepin-12-one]"
5,6.8 µM,"C=CC(=O)N1CCN2C(=O)c3c(N4CCN(C)C[C@@H]4C)nc(-c4c(O)ccc(Cl)c4F)c(Cl)c3OC[C@H]2C1 [Z343, (6aR)-8-acryloyl-4-chloro-3-(3-chloro-2-fluoro-6-hydroxyphenyl)-1-((S)-2,4-dimethylpiperazin-1-yl)-6,6a,7,8,9,10-hexahydro-12H-pyrazino[2,1-c]pyrido[3,4-f][1,4]oxazepin-12-one]"
6,9.55 µM,"C=CC(=O)N1CCN2C(=O)c3c(N4CC[C@H](OC)[C@@H]4C)nc(-c4c(O)cccc4F)c(Cl)c3OC[C@H]2C1 [Z347-1, (6aR)-8-acryloyl-4-chloro-3-(2-fluoro-6-hydroxyphenyl)-1-((2S,3S)-3-methoxy-2-methylpyrrolidin-1-yl)-6,6a,7,8,9,10-hexahydro-12H-pyrazino[2,1-c]pyrido[3,4-f][1,4]oxazepin-12-one]"
7,3.44 µM,"C=CC(=O)N1CCN2C(=O)c3c(N4C[C@](C)(O)CC4(C)C)nc(-c4c(O)cccc4F)c(Cl)c3OC[C@H]2C1 (single isomer, unassigned) [Z243-2]"
8,9.12 µM,"C=CC(=O)N1CCN2C(=O)c3c(N4C[C@H](OC)C[C@@H]4C)nc(-c4c(O)cccc4F)c(Cl)c3OC[C@H]2C1 [Z259a, (6aR)-8-acryloyl-4-chloro-3-(2-fluoro-6-hydroxyphenyl)-1-((2S,4R)-4-methoxy-2-methylpyrrolidin-1-yl)-6,6a,7,8,9,10-hexahydro-12H-pyrazino[2,1-c]pyrido[3,4-f][1,4]oxazepin-12-one]"
9,7.33 µM,"C=CC(=O)N1CCN2C(=O)c3c(N4CC(C#N)CC4(C)C)nc(-c4c(O)cccc4F)c(Cl)c3OC[C@H]2C1 (stereo partly drawn) [Z275, (6aR)-8-acryloyl-1-(4-cyano-2,2-dimethylpyrrolidin-1-yl)-4-chloro-3-(2-fluoro-6-hydroxyphenyl)-6,6a,7,8,9,10-hexahydro-12H-pyrazino[2,1-c]pyrido[3,4-f][1,4]oxazepin-12-one]"
10,5.53 µM,"C=CC(=O)N1CCN2C(=O)c3c(N4C[C@@H](N(C)C)C[C@@H]4C)nc(-c4c(O)cccc4F)c(Cl)c3OC[C@H]2C1 [Z237-2, (6aR)-8-acryloyl-4-chloro-1-((2S,4S)-4-(dimethylamino)-2-methylpyrrolidin-1-yl)-3-(2-fluoro-6-hydroxyphenyl)-6,6a,7,8,9,10-hexahydro-12H-pyrazino[2,1-c]pyrido[3,4-f][1,4]oxazepin-12-one]"
11,> 10 µM,"C=CC(=O)N1CCN2C(=O)c3c(N4CC[C@H](N(C)C)C4(C)C)nc(-c4c(O)cccc4F)c(Cl)c3OC[C@H]2C1 (single isomer, unassigned) [Z360-2]"
12,26.3 µM,"C=CC(=O)N1CCN2C(=O)c3c(N4CCN(S(C)(=O)=O)C[C@@H]4C)nc(-c4c(O)cccc4F)c(Cl)c3OC[C@H]2C1 [Z318-1, (6aR)-8-acryloyl-1-((S)-2-methyl-4-(methylsulfonyl)piperazin-1-yl)-4-chloro-3-(2-fluoro-6-hydroxyphenyl)-6,6a,7,8,9,10-hexahydro-12H-pyrazino[2,1-c]pyrido[3,4-f][1,4]oxazepin-12-one]"
13,14.4 µM,"C=CC(=O)N1CCN2C(=O)c3c(N4CCN(C)[C@H](C)[C@@H]4C)nc(-c4c(O)cccc4F)c(Cl)c3OC[C@H]2C1 (single isomer, unassigned) [Z308a-1]"
14,9.55 µM,"C=CC(=O)N1CCN2C(=O)c3c(N4CC[C@H](OC)C4(C)C)nc(-c4c(O)cccc4F)c(Cl)c3OC[C@H]2C1 (single isomer, unassigned) [Z241a-1]"
15,9.69 µM,C=CC(=O)N1CCN2C(=O)c3c(N4Cc5cn(C)nc5C4C)nc(-c4c(O)cccc4F)c(Cl)c3OC[C@H]2C1 (stereo partly shown) [Z291-2]
16,> 30 µM,C=CC(=O)N1CCN2C(=O)c3c(N4CCN(C(C)=O)C[C@@H]4C)nc(-c4c(O)cccc4F)c(Cl)c3OC[C@H]2C1 [Z313-1]
17,> 30 µM,"C=CC(=O)N1CCN2C(=O)c3c(N4CCN(C)C(=O)[C@@H]4C)nc(-c4c(O)cccc4F)c(Cl)c3OC[C@H]2C1 [Z311-1, (6aR)-8-actyloyl-4-chloro-1-((S)-2,4-dimethyl-3-oxopiperazin-1-yl)-3-(2-fluoro-6-hydroxyphenyl)-6,6a,7,8,9,10-hexahydro-12H-pyrazino[2,1-c]pyrido[3,4-f][1,4]oxazepin-12-one]"
18,> 30 µM,"C=CC(=O)N1CCN2C(=O)c3c(N4C[C@@H](OC)C[C@@H]4C)nc(-c4c(O)cccc4F)c(Cl)c3OC[C@H]2C1 [Z260a, (6aR)-8-acryloyl-4-chloro-3-(2-fluoro-6-hydroxyphenyl)-1-((2S,4S)-4-methoxy-2-methylpyrrolidin-1-yl)-6,6a,7,8,9,10-hexahydro-12H-pyrazino[2,1-c]pyrido[3,4-f][1,4]oxazepin-12-one]"
19,10.1 µM,"C=CC(=O)N1CCN2C(=O)c3c(N4C[C@@H](CO)CC4(C)C)nc(-c4c(O)cccc4F)c(Cl)c3OC[C@H]2C1 (single isomer, unassigned) [Z240-1]"

# Reference: patent publication US20230203060A1 (GENFLEET THERAPEUTICS (SHANGHAI) INC., priority 2020, published 2023)
